Each structure is given as a SMILES string. Where only a bound is given, the exact number is not on record here.

One assay has as its target GSK3-β (AA 1-420) (Homo sapiens, UniProt P49841). Description: GSK-3 inhibition assay (coupled enzyme system). The assay is classed as biochemical. To be noted: 10 μM ATP, 300 μM peptide, 60 nM GSK-3β, 30° C. How it is done:
Compounds were screened for their ability to inhibit GSK3-β (AA 1-420) activity using a standard coupled enzyme system (Fox et al. (1998) Protein Sci. 7, 2249). Reactions were carried out in a solution containing 100 mM HEPES (pH 7.5), 10 mM MgCl2, 25 mM NaCl, 300 μM NADH, 1 mM DTT and 1.5% DMSO. Final substrate concentrations in the assay were 10 μM ATP (Sigma Chemicals, St Louis, Mo.) and 300 μM peptide (HSSPHQS(PO3H2)EDEEE, American Peptide, Sunnyvale, Calif.). Reactions were carried out at 30° C. and 60 nM GSK-3β. Final concentrations of the components of the coupled enzyme system were 2.5 mM phosphoenolpyruvate, 300μM NADH, 30 μg/ml pyruvate kinase and 10 μg/ml lactate dehydrogenase.
An assay stock buffer solution was prepared containing all of the reagents listed above with the exception of ATP and the test compound of interest. 59 μl of the test reaction was placed in a 96 well ½-diameter plate (Corning, Corning, N.Y.) then treated with 1 μl of a 2 mM DMSO stock containing the test compound (final compound concentration 30 μM). The plate was incubated for ˜10 minutes at 30° C. then the reaction initiated by addition of 7 μl of ATP (final concentration 10 μM). Rates of reaction were obtained using a Molecular Devices Spectramax plate reader (Sunnyvale, Calif.) over a 5 minute read time at 30° C.
(§1) The compound numbers correspond to the compound numbers in Table 1.

Another assay has as its target T1, Aurora2 (Homo sapiens, UniProt O14965).
T1 sequence (O14965 1-403): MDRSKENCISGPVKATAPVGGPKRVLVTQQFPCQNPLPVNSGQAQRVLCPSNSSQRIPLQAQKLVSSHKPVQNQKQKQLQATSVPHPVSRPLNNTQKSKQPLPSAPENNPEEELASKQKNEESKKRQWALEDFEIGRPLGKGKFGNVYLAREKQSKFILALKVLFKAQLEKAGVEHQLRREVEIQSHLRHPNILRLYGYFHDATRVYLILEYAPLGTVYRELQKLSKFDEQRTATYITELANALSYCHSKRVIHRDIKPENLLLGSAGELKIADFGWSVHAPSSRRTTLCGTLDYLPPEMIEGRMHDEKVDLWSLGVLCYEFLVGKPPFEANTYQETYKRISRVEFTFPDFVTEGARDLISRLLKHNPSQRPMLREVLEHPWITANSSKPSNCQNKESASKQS
Description: Aurora2 inhibition assay (coupled enzyme assay). The assay is classed as biochemical. To be noted: 800 μM peptide LRRASLG, 70 nM Aurora2, 30° C. How it is done: Compounds are screened in the following manner for their ability to inhibit Aurora2 using a standard coupled enzyme assay (Fox et al (1998). Protein Sci 7, 2246). To an assay stock buffer solution containing 0.1M HEPES 7.5, 10 mM MgCl2, 1 mM DTT, 25 mM NaCl, 2.5 mM prosphoenolpyruvate, […], […] pyruvate kinase, […] lactate dehydrogenase, […], and 800 μM peptide (LRRASLG, American Peptide, Sunnyvale, Calif.) is added a DMSO solution of a compound of the present invention to a final concentration of 30 μM. The resulting mixture is incubated at 30° C. for 10 minutes. The reaction was initiated by the addition of 10 μL of Aurora2 stock solution to give a final concentration of 70 nM in the assay. The rates of reaction are obtained by monitoring absorbance at 340 nm over a 5 minute read time at 30° C. using a BioRad Ultramark plate reader (Hercules, Calif.). The IC50 values are determined from the rate data as a function of inhibitor concentration.
as §1

Chain of GSK3-β (AA 1-420) (P49841 whole entry, the tested form may be a part): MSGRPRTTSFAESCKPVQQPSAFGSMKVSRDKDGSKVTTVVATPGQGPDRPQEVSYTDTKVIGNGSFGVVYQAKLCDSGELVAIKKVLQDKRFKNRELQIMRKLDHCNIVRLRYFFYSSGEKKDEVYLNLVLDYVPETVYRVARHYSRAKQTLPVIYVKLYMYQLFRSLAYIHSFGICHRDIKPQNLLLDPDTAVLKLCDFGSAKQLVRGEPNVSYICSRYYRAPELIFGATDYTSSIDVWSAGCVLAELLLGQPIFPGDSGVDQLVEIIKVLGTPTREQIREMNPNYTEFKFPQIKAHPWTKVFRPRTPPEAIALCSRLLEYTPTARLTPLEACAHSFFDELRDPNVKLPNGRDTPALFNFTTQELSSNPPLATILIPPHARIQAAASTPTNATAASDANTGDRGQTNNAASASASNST

Take `Fc1cc(F)cc(COc2cccc(Nc3nccc(-c4nccs4)n3)c2)c1` [Compound I-103]: the Ki on GSK3-β (AA 1-420) is under 0.1 µM. This compound gave an IC50 at Aurora2 of over 2 µM. As for `COc1ccc(Nc2nccc(-c3nccs3)n2)cc1Oc1cccc(F)c1` [Compound I-105], the Ki on GSK3-β (AA 1-420) is under 0.1 µM. On GSK3-β (AA 1-420), `Oc1ccc(-c2cccc(Nc3nccc(-c4nccs4)n3)c2)cc1` [Compound I-66] showed a Ki of under 0.1 µM.

The compound `CSc1ccc(-c2cccc(Nc3nccc(-c4nccs4)n3)c2)cc1` [Compound I-60] gave a Ki at GSK3-β (AA 1-420) of under 0.1 µM.

For the compound `O=[N+]([O-])c1cccc(Nc2cccc(Nc3nccc(-c4nccs4)n3)c2)c1` [Compound I-97], the IC50 against Aurora2 is over 2 µM. On to `O=[N+]([O-])c1ccc(Nc2nccc(-c3nccs3)n2)cc1` [Compound I-40], for which, on GSK3-β (AA 1-420), the Ki is under 0.1 µM. In addition, the IC50 against Aurora2 is over 2 µM.

With `N#Cc1cccc(COc2cccc(Nc3nccc(-c4nccs4)n3)c2)c1` [Compound I-79], at GSK3-β (AA 1-420), the Ki is under 0.1 µM. In addition, the IC50 on Aurora2 is over 2 µM. On to `Cc1cnc(Nc2cccc(-c3cccnc3)c2)nc1-c1nccs1` [Compound I-87], for which the Ki at GSK3-β (AA 1-420) is under 0.1 µM. On to `Clc1ccc(Cl)c(-c2cccc(Nc3nccc(-c4nccs4)n3)c2)c1` [Compound I-21], for which the Ki at GSK3-β (AA 1-420) is over 1 µM. `Fc1ccc(-c2cccc(Nc3nccc(-c4nccs4)n3)c2)c(F)c1` [Compound I-18] showed a Ki at GSK3-β (AA 1-420) of under 0.1 µM. The compound `c1ccc(Oc2ccc(-c3cccc(Nc4nccc(-c5nccs5)n4)c3)cc2)cc1` [Compound I-9] had a Ki at GSK3-β (AA 1-420) of under 0.1 µM. As for `c1cncc(COc2cccc(N(Cc3cccnc3)c3nccc(-c4nccs4)n3)c2)c1` [Compound I-26], the IC50 at Aurora2 is under 0.5 µM. On to `FC(F)(F)c1cccc(-c2cccc(Nc3nccc(-c4nccs4)n3)c2)c1` [Compound I-30], for which the Ki on GSK3-β (AA 1-420) is under 0.1 µM. `CN(C)c1ccc(-c2cccc(Nc3nccc(-c4nccs4)n3)c2)cc1` [Compound I-81] showed a Ki on GSK3-β (AA 1-420) of under 0.1 µM. Compound `FC(F)(F)c1ccccc1-c1cccc(Nc2nccc(-c3nccs3)n2)c1` [Compound I-27] showed a Ki on GSK3-β (AA 1-420) of under 0.1 µM. `Nc1cccc(-c2cccc(Nc3nccc(-c4nccs4)n3)c2)c1` [Compound I-57] yielded a Ki on GSK3-β (AA 1-420) of under 0.1 µM. On the same count and under the same terms, then `Clc1cccc(-c2cccc(Nc3nccc(-c4nccs4)n3)c2)c1Cl` [Compound I-24], with under 0.1 µM. For `COc1cc(F)cc(-c2cccc(Nc3nccc(-c4nccs4)n3)c2)c1` [Compound I-15], the Ki at GSK3-β (AA 1-420) is under 0.1 µM.

`Fc1ccccc1-c1cccc(Nc2nccc(-c3nccs3)n2)c1` [Compound I-6] had a Ki at GSK3-β (AA 1-420) of under 0.1 µM. On GSK3-β (AA 1-420), `COc1ccc(-c2ccccc2)cc1Nc1ncc(C)c(-c2nccs2)n1` [Compound I-93] showed a Ki of over 1 µM. The same measure, in the same setting: the same measure for `COc1ccc(-c2cccc(Nc3nccc(-c4nccs4)n3)c2)c(OC)c1OC` [Compound I-12]: under 0.1 µM; for `c1cc(Nc2nccc(-c3nccs3)n2)cc(-c2ccc3[nH]ccc3c2)c1` [Compound I-78]: under 0.1 µM.

`Oc1ccccc1-c1cccc(Nc2nccc(-c3nccs3)n2)c1` [Compound I-69] came in with a Ki at GSK3-β (AA 1-420) of under 0.1 µM. Compound `COc1ccc(Oc2ccccc2)cc1Nc1nccc(-c2nccs2)n1` [Compound I-114] returned a Ki at GSK3-β (AA 1-420) of over 1 µM. On Aurora2, this compound displayed an IC50 of 0.5 to 2 µM. Take `c1ccc(COc2cccc(Nc3nccc(-c4nccs4)n3)c2)nc1` [Compound I-20]: on GSK3-β (AA 1-420), the Ki is under 0.1 µM. At Aurora2, this compound showed an IC50 of under 0.5 µM.

Turning to `COc1ccc(Nc2nccc(-c3nccs3)n2)cc1` [Compound I-70], the IC50 on Aurora2 lay in the range of 0.5 to 2 µM. In turn, `Cc1cnc(Nc2cccc(C(F)(F)F)c2)nc1-c1nccs1` [Compound I-99] came in with a Ki on GSK3-β (AA 1-420) of under 0.1 µM. Compound `Cc1ccc(C)c(-c2cccc(Nc3nccc(-c4nccs4)n3)c2)c1` [Compound I-39] showed a Ki on GSK3-β (AA 1-420) of under 0.1 µM. The same measure, in the same setting: then `COc1ccc(Oc2ccccc2)cc1Nc1ncc(C)c(-c2nccs2)n1` [Compound I-117], with over 1 µM; and `CCOc1cccc(-c2cccc(Nc3nccc(-c4nccs4)n3)c2)c1` [Compound I-42], with under 0.1 µM. At GSK3-β (AA 1-420), `COc1cc(O)ccc1-c1cccc(Nc2nccc(-c3nccs3)n2)c1` [Compound I-75] registered a Ki of under 0.1 µM.

For the compound `Cc1cnc(Nc2cccc(-c3ccc(O)cc3)c2)nc1-c1nccs1` [Compound I-84], the Ki at GSK3-β (AA 1-420) was under 0.1 µM. `COc1ccc(-c2ccccc2)cc1Nc1nccc(-c2nccs2)n1` [Compound I-96] yielded a Ki at GSK3-β (AA 1-420) of over 1 µM.

At GSK3-β (AA 1-420), `Fc1ccc(COc2cccc(Nc3nccc(-c4nccs4)n3)c2)cc1F` [Compound I-85] yielded a Ki of under 0.1 µM. This compound also came in with an IC50 on Aurora2 of over 2 µM. Regarding `Cc1cnc(Nc2cccc(-c3cccc(N)c3)c2)nc1-c1nccs1` [Compound I-90], on GSK3-β (AA 1-420), the Ki is under 0.1 µM. `COc1ccc(OC)c(-c2cccc(Nc3nccc(-c4nccs4)n3)c2)c1` [Compound I-54] registered a Ki on GSK3-β (AA 1-420) of under 0.1 µM. Take `c1cncc(-c2cccc(Nc3nccc(-c4nccs4)n3)c2)c1` [Compound I-63]: the Ki on GSK3-β (AA 1-420) is under 0.1 µM. On the same count and under the same terms, the same measure for `COc1ccc(Nc2nccc(-c3nccs3)n2)cc1Oc1ccc(Cl)cc1` [Compound I-111]: under 0.1 µM. As to `c1ccc(COc2ccc(Nc3nccc(-c4nccs4)n3)cc2)cc1` [Compound I-10], the Ki on GSK3-β (AA 1-420) is over 1 µM. The compound further gave an IC50 at Aurora2 of over 2 µM. Regarding `CCOc1ccc(-c2cccc(Nc3nccc(-c4nccs4)n3)c2)cc1` [Compound I-33], the Ki on GSK3-β (AA 1-420) was under 0.1 µM.

`COc1cccc(OC)c1-c1cccc(Nc2nccc(-c3nccs3)n2)c1` [Compound I-51]: the Ki at GSK3-β (AA 1-420) was 0.1 to 1 µM. As for `CCOc1ccccc1-c1cccc(Nc2nccc(-c3nccs3)n2)c1` [Compound I-36], the Ki at GSK3-β (AA 1-420) lay within 0.1 to 1 µM.

On to `COc1ccc(Nc2nccc(-c3nccs3)n2)cc1Oc1cccc(Cl)c1` [Compound I-108], for which the Ki at GSK3-β (AA 1-420) was in the range of 0.1 to 1 µM.

In the case of `Clc1cccc(Nc2nccc(-c3nccs3)n2)n1` [Compound I-28], the Ki at GSK3-β (AA 1-420) is under 0.1 µM. For the same compound, the IC50 against Aurora2 was over 2 µM. `CS(=O)(=O)c1ccc(-c2cccc(Nc3nccc(-c4nccs4)n3)c2)cc1` [Compound I-45] displayed a Ki at GSK3-β (AA 1-420) of under 0.1 µM. Turning to `Oc1cccc(-c2cccc(Nc3nccc(-c4nccs4)n3)c2)c1` [Compound I-72], the Ki on GSK3-β (AA 1-420) was under 0.1 µM.

At GSK3-β (AA 1-420), `Fc1ccccc1COc1cccc(Nc2nccc(-c3nccs3)n2)c1` [Compound I-41] had a Ki of under 0.1 µM. The same compound showed an IC50 at Aurora2 of over 2 µM. `N#Cc1ccc(-c2cccc(Nc3nccc(-c4nccs4)n3)c2)cc1` [Compound I-48] yielded a Ki at GSK3-β (AA 1-420) of under 0.1 µM. The compound `c1ccc(Oc2ccc(Nc3nccc(-c4nccs4)n3)cc2)cc1` [Compound I-13] yielded an IC50 against Aurora2 of over 2 µM.

The compound `Fc1cccc(COc2cccc(Nc3nccc(-c4nccs4)n3)c2)c1` [Compound I-100] showed a Ki at GSK3-β (AA 1-420) of under 0.1 µM. For the same compound, on Aurora2, the IC50 is over 2 µM.

On GSK3-β (AA 1-420), `Cc1ccccc1-c1cccc(Nc2nccc(-c3nccs3)n2)c1` [Compound I-3] showed a Ki of under 0.1 µM.

Broadly, the Ki is the equilibrium dissociation constant of an inhibitor or competing ligand from its target. High values mean weaker binding, low ones tighter binding. Usually IC50 stands for the point on the concentration scale where inhibition reaches its midpoint. The low end stands for greater potency, the high end for weaker potency.
